From patent US5670506A, “Halogen, isothiocyanate or azide substituted xanthines” (Cell Therapeutics, Inc., priority 1993, dated 1997)

Experiments:
Format in all cases: cell-based
[1] = system: PBMC (peripheral blood mononuclear cells); experiment: two-way mixed lymphocyte reaction (MLR), immune suppression; settings: Homo sapiens, 144 h, allogeneic stimulation of PBMC, 6 days
Excerpt: Various in vitro assays can be used to measure effects of the inventive compounds to module immune activity and have antitumor activity using a variety of cellular types. For example, a mixed lymphocyte reaction (MLR) provides a valuable screening tool to determine biological activity of each inventive compound. In the MLR, PBMCs (peripheral blood mononuclear cells) are obtained by drawing whole blood from healthy volunteers in a heparinized container and diluted with an equal volume of hanks balanced salt solution (HBSS). This mixture is layered on a sucrose density gradient, such as a Ficoll-Hypaque® gradient (specific gravity 1.08), and centrifuged at 1000× g for 25 minutes at room temperature or cooler. PBMC are obtained from a band at a plasma-Ficoll interface, separated and washed at least twice in a saline solution, such as HBSS. Contaminating red cells are lysed, such as by ACK lysis for 10 rain at 37° C., and the PBMCs are washed twice in HBSS. The pellet of purified PBMCs is resuspended in complete medium, such as RPMI 1640 plus 20% human inactivated serum. Proliferative response of PBMC to allogeneic stimulation is determined in a two-way MLR performed in a 96-well microtiter plate. […] At the conclusion of the incubation tritiated thymidine is added (for example, 1 μCi/well of 40 to 60 Ci/mmole) and proliferation determined by liquid scintillation counting. […]

human lymphocytes [2] = experiment: inhibition of blast formation from human lymphocytes stimulated by IL-2; settings: Lymphocyte, FIG. 10, read-out: IC50, blastogenesis stimulated by IL-2
Protocol: (§1) This is a human in vitro assay for immunosuppressive activity of the inventive compounds.
(§2) A third assay measures an ability of an inventive compound to inhibit IL-2-induced proliferation of murine thymocytes. Thymus glands are obtained from 4-6 week old mice and plated as a single cell suspension into flat bottomed wells in RPMI 1640 medium supplemented with 10% fetal calf serum. The inventive compounds are added to appropriate wells and the cells are incubated for 1-2 hrs. Concanavilin A (ConA, 0.25 μg/ml) and IL-1 (20 ng/ml) are added and the plates are incubated for 4 days. Cell proliferation is determined as above. There are also variations for this assay that follow the same basic stimulation and measure inhibition of proliferation format. For example, splenocytes can be used instead of thymocytes to measure more of a B cell response than a T cell response (e.g., thymocytes) and stimulated by an anti-mu antibody (40 μg/ml), IL-4 or PMA (2.5 nM). Similarly, human lymphocytes can be used from normal human volunteers and stimulated with human IL-2 (100 U/ml, Genzyme) and/or anti-CD3 antibody (2.5 μg/ml, Boehinger Mannheim).
(§3) This example illustrates an experiment showing the effects of CT1525, CT1529 and CT1595 (see Table 1 above for chemical names) on inhibition of blast formation from human lymphocytes stimulated by IL-2 or an anti-CD3 antibody (FIG. 10). […]

[3] = system: Ras-transformed 3T3 cells (IL-1-induced signal transduction via the Type I IL-1 receptor); experiment: DAG and PA generated after stimulation of Ras-transformed 3T3 cells with IL-1β; settings: FIGS. 11 and 12, IL-1β stimulation
Excerpt: FIGS. 11 and 12 show the effects of CT1595 on the amount of DAG (diacylglycerol) (FIG. 11) and PA (Phosphatidic acid) (FIG. 12) generated at different times after stimulation of Ras-transformed 3T3 cells with IL-1β. CT1595 is a potent drug to inhibit enzyme activity that generates PA and then DAG by inhibiting IL-1-induced signal transduction, through this second messenger pathway, via the Type I IL-1 receptor. The inhibiting activity was not in a dose-response manner, indication that the IC50 concentration for inhibiting cellular second messenger signaling is probably below 500 nM.
One in vitro assay measures inhibition of the relevant enzymes lysophosphatidic acid acyltransferase (LPAAT) and phosphatidic acid phosphoryl hydrolase (PAPH). […] It is important to note that the assay method permits discrimination between various forms of PA and DAG so that those relevant to the pathway affected by the (R) or (S) compounds of the invention can be measured directly. […] Thus, the relevant unsaturated (non-arachidonic) PA and DAG subspecies may be detected. […]

human lymphocytes [4] = experiment: inhibition of blast formation from human lymphocytes stimulated by anti-CD3 antibody; settings: Lymphocyte, FIG. 10, read-out: IC50, blastogenesis stimulated by anti-CD3
Protocol: as §1, §2, §3

For Cn1cnc2c1c(=O)n(CCCCC(=O)CCl)c(=O)n2C [CT1595, 1-(6-chloro-5-oxohexyl)-3,7-dimethylxanthine], the IC50 [1] was less than 10 µM, the IC50 (human lymphocytes [2]) was less than 5 µM and the “inhibition of DAG and PA generation” value ([3]; in words) was “the overall signal is being significantly inhibited”. The IC50 ([3]; Mus musculus, NIH3T3, "probably" below, read-out: IC50 for inhibiting cellular second messenger signaling) was less than 0.5 µM and the IC50 (human lymphocytes [4]) was less than 5 µM.
